Reference: patent publication US11008331B2, “Hepatitis B virus surface antigen inhibitor” (FUJIAN COSUNTER PHARMACEUTICAL CO., LTD., priority 2017, dated 2021)
Read-outs that look alike come from different tables or passages of the source.

Tests used:
HBV DNA = test: HBV in vitro test: HBV DNA in HepG2.2.15 culture supernatant by real time-qPCR; type: cell-based, Hepatitis B Virus (HBV)
Experimental: (§1) The content of HBV DNA in HepG2. 2. 15 cell culture supernatant was detected by a real-time quantitative qPCR assay (real time-qPCR), and the content of HBV surface antigen was detected by enzyme-linked immunosorbent assay (ELISA), the compound EC50 value was used as an index to evaluate the inhibitory effect of the compound on HBV.
(§2) 3.1. HepG2. 2. 15 cells (4×10^4 cells/well) was plated into a 96-well plate and cultured overnight at 37° C., 5% CO2.
(§3) 3.2. The next day, the compound was diluted to 8 concentrations, 3-folds gradients dilution. The compound of different gradients were added into the culture well, double duplicated the wells. The final concentration of the DMSO was 0.5% in the culture solution. 10 μM ETV was used as 100% inhibition control; 0.5% of DMSO was used as 0% inhibition control.
(§4) 3.3. On the fifth day, the culture solution was replaced by fresh culture solution containing the compound.
(§5) 3.4. On the eighth day, the culture solution in the culture well was collected, and the content of hepatitis B virus S antigen was measured by ELISA with partial samples; and still partial samples was taken for extraction of DNA using high-throughput DNA purification kit (Qiagen-51162).
3.6. 15 μL reaction mixture was added into each well of the 96-well PCR plate, then in each well was added 10 μL sample DNA or standard product of HBV DNA.
3.7. The qPCR plate was sealed with optical sealing film, centrifuged at 1500 rpm for 2 minutes, and then the HBV copy number of each sample was quantitatively detected by fluorescence quantitative qPCR. The operation procedure of qPCR is as follows
Calculation of the Inhibition Percentage % Inh.=(1−value in the sample/DMSO control group value)×100%.
The dose-response curves was fitted by GraphPad Prism software, and the 50% inhibited concentration EC50 value of the compound against HBV was calculated.

[1] = system: HBV surface antigen (HBsAg); test: HBV in vitro test: HBV surface antigen in HepG2.2.15 culture supernatant by ELISA; type: cell-based, Hepatitis B Virus (HBV)
Experimental: as §1, §2, §3, §4, §5
3.9. Content determination of hepatitis B virus S antigen measured by ELISA
50 μL sample and standard sample were taken and added into the reaction plate respectively, then 50 μL enzyme conjugate was added into each of the wells, shaked to mix well, then kept in warm bath at 37° C. for 60 min, and the plate was washed with cleansing solution for 5 times, 50 μL luminescent substrate was added into each wells, mixed well and reacted at r.t. for 10 min in the dark, the chemiluminescence intensity was finally detected with ELISA. The inhibition percentage of each compound was calculated by the following formula: inhibition rate (%)=(1−value in sample/DMSO control group value)×100%. The dose-response curves was fitted by GraphPad Prism software, and the 50% inhibited concentration EC50 value of the compound against HBV was calculated.

[2] = Hepatitis B virus, HepG2.2.15, HepG2. 2. 15 cell culture supernatant, collected on the eighth day, real time-qPCR, read-out: HBV-DNA experimental results EC50
[3] = Hepatitis B virus, HepG2.2.15, read-out: HBsAg experimental results EC50
[4] = Hepatitis B virus, HepG2.2.15, read-out: HBV-DNA experimental results EC50

| SMILES | EC50 (HBV DNA; [2]) | EC50 [1, 3] | EC50 (HBV DNA; [4]) | EC50 (HBV DNA; HepG2. 2. 15 cell culture supernatant, collected on the eighth day, real time-qPCR, read-out: HBV-DNA experimental results EC50) | EC50 ([1]; HepG2. 2. 15 cell culture supernatant, collected on the eighth day, ELISA, read-out: HBsAg experimental results EC50) |
| --- | --- | --- | --- | --- | --- |
| COc1cc2c(cc1Cl)-c1cc(=O)c(C(=O)O)cn1C(c1ccccc1)O2 (stereo not drawn) [Embodiment 1] | 11.8 nM | 27.6 nM |  |  |  |
| CC(C)(CO)COc1cc2c(cc1Cl)-c1cc(=O)c(C(=O)O)cn1C(c1ccccc1)O2 (stereo not drawn) [Embodiment 2] | 34.5 nM | 55.8 nM |  |  |  |
| COCCOc1cc2c(cc1Cl)-c1cc(=O)c(C(=O)O)cn1C(c1ccccc1)O2 (stereo not drawn) [Embodiment 3] | 27.6 nM | 47.6 nM |  |  |  |
| O=C(O)c1cn2c(cc1=O)-c1cc(Cl)c(OCC(F)F)cc1OC2c1ccccc1 (stereo not drawn) [Embodiment 4] | 15 nM | 31.9 nM |  |  |  |
| O=C(O)c1cn2c(cc1=O)-c1cc(Cl)c(OCCN3CCOCC3)cc1OC2c1ccccc1 (stereo not drawn) [Embodiment 5] | 15.1 nM | 50 nM |  |  |  |
| O=C(O)c1cn2c(cc1=O)-c1cc(Cl)c(OCCCO)cc1OC2c1ccccc1 (stereo not drawn) [Embodiment 6] | 6.04 nM | 20.3 nM |  |  |  |
| O=C(O)c1cn2c(cc1=O)-c1cc(Cl)c(OCCO)cc1OC2c1ccccc1 (stereo not drawn) [Embodiment 7] | 211 nM | 299 nM |  |  |  |
| O=C(O)c1cn2c(cc1=O)-c1cc(Cl)c(OCCCCCO)cc1OC2c1ccccc1 (stereo not drawn) [Embodiment 8] | 20.8 nM | 66.2 nM |  |  |  |
| C#CCOc1cc2c(cc1Cl)-c1cc(=O)c(C(=O)O)cn1C(c1ccccc1)O2 (stereo not drawn) [Embodiment 9] | 74.1 nM | 138 nM |  |  |  |
| O=C(O)c1cn2c(cc1=O)-c1cc(Cl)c(OCC(F)(F)CO)cc1OC2c1ccccc1 (stereo not drawn) [Embodiment 10] | 51 nM | 102 nM |  |  |  |
| CS(=O)(=O)CCCOc1cc2c(cc1Cl)-c1cc(=O)c(C(=O)O)cn1C(c1ccccc1)O2 (stereo not drawn) [Embodiment 11] | 40.8 nM | 73.9 nM |  |  |  |
| O=C(O)c1cn2c(cc1=O)-c1cc(Cl)c(OCCCN3CCCC3=O)cc1OC2c1ccccc1 (stereo not drawn) [Embodiment 12] | 78.1 nM | 213 nM |  |  |  |
| COCCCOc1cc2c(cc1Cl)-c1cc(=O)c(C(=O)O)cn1C(c1nccs1)O2 (stereo not drawn) [Embodiment 14] |  | 6.88 nM | 6.88 nM |  |  |
| COCCCOc1cc2c(cc1Cl)-c1cc(=O)c(C(=O)O)cn1C(c1ccccc1Cl)O2 (stereo not drawn) [Embodiment 15] | 8.2 nM |  |  |  |  |
| COCCCOc1cc2c(cc1Cl)-c1cc(=O)c(C(=O)O)cn1C(c1cccc(Cl)c1)O2 (stereo not drawn) [Embodiment 16] |  | 45.3 nM | 45.3 nM |  |  |
| COCCCOc1cc2c(cc1Cl)-c1cc(=O)c(C(=O)O)cn1C(c1ccc(Cl)cc1)O2 (stereo not drawn) [Embodiment 17] |  | 254 nM | 254 nM |  |  |
| COCCCOc1cc2c(cc1Cl)-c1cc(=O)c(C(=O)O)cn1C(c1ccc(F)cc1)O2 (stereo not drawn) [Embodiment 18] | 40.8 nM | 73.7 nM |  |  |  |
| COCCCOc1cc2c(cc1Cl)-c1cc(=O)c(C(=O)O)cn1C(c1ccccc1F)O2 (stereo not drawn) [Embodiment 19] | 3.88 nM | 20.9 nM |  |  |  |
| COCCCOc1cc2c(cc1Cl)-c1cc(=O)c(C(=O)O)cn1C(c1cccc(F)c1)O2 (stereo not drawn) [Embodiment 20] | 11 nM | 22.5 nM |  |  |  |
| COCCCOc1cc2c(cc1Cl)-c1cc(=O)c(C(=O)O)cn1C(c1ccccc1C)O2 (stereo not drawn) [Embodiment 21] | 7.12 nM | 16.3 nM |  |  |  |
| COCCCOc1cc2c(cc1Cl)-c1cc(=O)c(C(=O)O)cn1C(c1cccc(C)c1)O2 (stereo not drawn) [Embodiment 22] | 20.6 nM | 38.2 nM |  |  |  |

| SMILES | EC50 (HBV DNA; [2]) | EC50 [1, 3] | EC50 (HBV DNA; [4]) | EC50 (HBV DNA; HepG2. 2. 15 cell culture supernatant, collected on the eighth day, real time-qPCR, read-out: HBV-DNA experimental results EC50) | EC50 ([1]; HepG2. 2. 15 cell culture supernatant, collected on the eighth day, ELISA, read-out: HBsAg experimental results EC50) |
| --- | --- | --- | --- | --- | --- |
| COCCCOc1cc2c(cc1Cl)-c1cc(=O)c(C(=O)O)cn1C(c1ccc(C)cc1)O2 (stereo not drawn) [Embodiment 23] | 85.9 nM | 127 nM |  |  |  |
| COCCCOc1cc2c(cc1Cl)-c1cc(=O)c(C(=O)O)cn1C(c1cc(F)cc(OC)c1)O2 (stereo not drawn) [Embodiment 24] | 59.3 nM | 35.5 nM |  |  |  |
| COCCCOc1cc2c(cc1Cl)-c1cc(=O)c(C(=O)O)cn1C(c1cc(F)ccc1OC)O2 (stereo not drawn) [Embodiment 25] | 18.7 nM | 35.9 nM |  |  |  |
| COCCCOc1cc2c(cc1Cl)-c1cc(=O)c(C(=O)O)cn1C(c1cc(OC)ccc1F)O2 (stereo not drawn) [Embodiment 26] | 152 nM | 101 nM |  |  |  |
| COCCCOc1cc2c(cc1Cl)-c1cc(=O)c(C(=O)O)cn1C(c1c(F)cccc1Cl)O2 (stereo not drawn) [Embodiment 27] | 23.6 nM | 39.1 nM |  |  |  |
| COCCCOc1cc2c(cc1Cl)-c1cc(=O)c(C(=O)O)cn1C(c1nc(C)c(C)s1)O2 (stereo not drawn) [Embodiment 28] | 278 nM | 152 nM |  |  |  |
| COCCCOc1cc2c(cc1Cl)-c1cc(=O)c(C(=O)O)cn1C(c1c(F)cccc1F)O2 (stereo not drawn) [Embodiment 29] | 4.11 nM | 12.2 nM |  |  |  |
| COCCCOc1cc2c(cc1Cl)-c1cc(=O)c(C(=O)O)cn1C(c1cc(F)cc(F)c1)O2 (stereo not drawn) [Embodiment 30] | 18.5 nM | 28.2 nM |  |  |  |
| COCCCOc1cc2c(cc1Cl)-c1cc(=O)c(C(=O)O)cn1C(c1cccc(F)c1F)O2 (stereo not drawn) [Embodiment 31] | 90.5 nM | 203 nM |  |  |  |
| COCCCOc1cc2c(cc1Cl)-c1cc(=O)c(C(=O)O)cn1C(c1cc(F)ccc1F)O2 (stereo not drawn) [Embodiment 32] | 35.2 nM | 71 nM |  |  |  |
| COCCCOc1cc2c(cc1Cl)-c1cc(=O)c(C(=O)O)cn1C(c1ccc(F)cc1F)O2 (stereo not drawn) [Embodiment 33] | 12.6 nM | 10.2 nM |  |  |  |
| COCCCOc1cc2c(cc1Cl)-c1cc(=O)c(C(=O)O)cn1C(c1ccc(OC)cc1F)O2 (stereo not drawn) [Embodiment 34] | 21.3 nM | 29.6 nM |  |  |  |
| COCCCOc1cc2c(cc1Cl)-c1cc(=O)c(C(=O)O)cn1C(c1cnsc1C)O2 (stereo not drawn) [Embodiment 35] |  |  |  | 25.1 nM | 11 nM |
| COCCCOc1cc2c(cc1Cl)-c1cc(=O)c(C(=O)O)cn1C(c1cnsc1)O2 (stereo not drawn) [Embodiment 37] | 10.6 nM | 26.6 nM |  |  |  |
| COCCCOc1cc2c(cc1Cl)-c1cc(=O)c(C(=O)O)cn1C(c1cncs1)O2 (stereo not drawn) [Embodiment 38] | 20.4 nM | 12.3 nM |  |  |  |
| COCCCOc1cc2c(cc1Cl)-c1cc(=O)c(C(=O)O)cn1C(c1ncc(C)s1)O2 (stereo not drawn) [Embodiment 41] | 17.8 nM | 58 nM |  |  |  |
| Cc1csc(C2Oc3cc(OCC4CC4)c(Cl)cc3-c3cc(=O)c(C(=O)O)cn32)n1 (stereo not drawn) [Embodiment 42] | 2.19 nM | 7.88 nM |  |  |  |
| COCCCOc1cc2c(cc1OC)-c1cc(=O)c(C(=O)O)cn1C(c1cscn1)O2 (stereo not drawn) [Embodiment 43] | 19.4 nM | 15.4 nM |  |  |  |
| O=C(O)c1cn2c(cc1=O)-c1cc(Cl)c(OCC3CC3)cc1OC2c1ncc(Cl)s1 (stereo not drawn) [Embodiment 44] | 129 nM | 212 nM |  |  |  |
| COCCCOc1cc2c(cc1Cl)-c1cc(=O)c(C(=O)O)cn1C(c1csc(Cl)c1Cl)O2 (stereo not drawn) [Embodiment 48] | > 1000 nM | 103 nM |  |  |  |
